From BindingDB's records for doi:10.1016/j.bmc.2020.115644 (Umass Medical School, 2020) come the findings set out here.

pIC50, pKi: −log10 of the molar value. Where a name gives a salt, the structure may show the parent alone.

Assay [1] has as its target T1, NAD(+) hydrolase SARM1 (Homo sapiens, UniProt Q6SZW1).
T1 sequence (Q6SZW1 whole entry): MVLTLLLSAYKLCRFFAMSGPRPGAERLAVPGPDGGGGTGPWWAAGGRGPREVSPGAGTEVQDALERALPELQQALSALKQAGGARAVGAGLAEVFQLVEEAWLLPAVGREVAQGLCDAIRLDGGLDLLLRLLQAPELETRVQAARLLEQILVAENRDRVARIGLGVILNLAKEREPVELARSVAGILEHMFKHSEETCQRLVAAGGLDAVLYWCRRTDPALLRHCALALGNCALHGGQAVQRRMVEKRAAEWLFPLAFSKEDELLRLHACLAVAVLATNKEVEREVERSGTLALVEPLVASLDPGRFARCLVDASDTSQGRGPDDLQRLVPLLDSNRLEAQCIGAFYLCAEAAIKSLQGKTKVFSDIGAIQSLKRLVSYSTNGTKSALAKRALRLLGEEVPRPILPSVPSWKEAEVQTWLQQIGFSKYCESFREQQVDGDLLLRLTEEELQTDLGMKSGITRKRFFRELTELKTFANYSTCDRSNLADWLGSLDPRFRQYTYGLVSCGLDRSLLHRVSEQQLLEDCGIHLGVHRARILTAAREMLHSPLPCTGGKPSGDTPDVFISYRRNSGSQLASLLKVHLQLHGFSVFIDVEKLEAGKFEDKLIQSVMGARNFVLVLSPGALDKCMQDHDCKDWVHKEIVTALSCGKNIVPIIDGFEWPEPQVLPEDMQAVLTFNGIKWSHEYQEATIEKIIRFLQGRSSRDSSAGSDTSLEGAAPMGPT
In words: Inhibition of recombinant human SARM1 TIR domain (561 to 724 residues) expressed in Escherichia coli C43 (DE3) cells lysates using ENAD as substrate preincubated for 20 mins followed by ENAD addition and measured at 15 sec interval for 15 mins.

In assay [2] the target is T1, NAD(+) hydrolase SARM1. The assay is described as follows: Noncompetitive inhibition of recombinant human SARM1 TIR domain (561 to 724 residues) expressed in Escherichia coli C43 (DE3) cells lysates assessed as EADPR formation using ENAD as substrate preincubated for 20 mins followed by ENAD addition and measured at 15 sec interval for 1 hr.

For the molecule `C[C@H]1c2cccc(O)c2C(=O)C2=C(O)[C@]3(O)C(=O)C(C(N)=O)=C(O)[C@@H](N(C)C)[C@@H]3[C@@H](O)[C@@H]21` [DOXYCYCLINE HYDROCHLORIDE], the pIC50 (in general, the negative decadic logarithm of the IC50, by convention in mol/L) on NAD(+) hydrolase SARM1 [1] was 3.84. The pKi (commonly −log10 of the Ki, conventionally taken in molar units) on NAD(+) hydrolase SARM1 [2] was 3.55.
Regarding `Nc1ccc(/N=N/c2ccccc2)c(N)n1` [NC 150], the pIC50 at NAD(+) hydrolase SARM1 [1] was 3.84.
